Experimental data published in patent publication EP2929785A1, “A PLA inhibitor for inhibition of fat absorption” (PAT GmbH, priority 2014, dated 2015).

Columns and labels:
[1] = test system: retrogradely perfused mouse livers; test: Single pass [3H]oleate extraction rates in retrogradely perfused mouse livers; type: in vivo, C57BL/6 mice; settings: mice pretreated i.p. 23 mg/kg, 1 h
Procedure: Twelve-week-old female C57BL/6 mice were injected intraperitoneally with 1 ml UDCA-LPE [ChemCon, Freiburg, Germany] (Chamulitrat W. et al. Hepatology. 2009; 50: 143-154) at 23 mg/kg or phosphate-buffered saline (PBS) as a control with 5% Tween 80. […] Retrograde perfusion of oxygenized 100 µM albumin (A4503, Sigma, Munich, Germany) in PBS was performed at 37°C and a flow rate of 4 ml/min, with the perfusate collected from the opened portal vein (Hoffmann MJ et al. Hepatology. 2012; 55: 1369-1378). After equilibration for 5 min, a 1 ml bolus of 200 µM [3H]oleate (Perkin Elmer, Rodgau, Germany) along with 100 µM [methyl-14 C]albumin (Biotrend, Cologne, Germany) or 100 µM [14C]sucrose (Perkin Elmer) was introduced through the stopcock and the perfusion was allowed to continue for 5 min. Outflow samples were collected every 15 s and single pass extraction rates were determined as previously described (Hoffmann MJ et al. Toxicol. Sciences. 1999; 49: 40-47).

HepG2 cells = test: Fatty acid ([3H]oleate:albumin) influx in HepG2 cells; type: cell-based, human
wild-type hepatocytes = test: Fatty acid influx in primary hepatocytes from wild-type mice; type: cell-based; settings: UDCA-LPE pretreatment (Fig. 4B)
iPLA2ß-/- hepatocytes = test: Fatty acid influx in primary hepatocytes from iPLA2ß-/- mice; type: cell-based; settings: UDCA-LPE pretreatment (Fig. 4B)
[2] = molecular target: T1, fatty acid uptake complex in the DRM-PM consisting of CD36, FABPPM, caveolin1, and iPLA2ß (Homo sapiens, UniProt O60733); test: Disassembly of the fatty acid uptake complex in DRM-PM of HepG2 cells (immunoprecipitation, western blotting); type: cell-based
T1 construct: western blotting of DRM-PM isolated from these cells; endogenous in cells; host or cells: HepG2
T1 sequence (O60733 1-806): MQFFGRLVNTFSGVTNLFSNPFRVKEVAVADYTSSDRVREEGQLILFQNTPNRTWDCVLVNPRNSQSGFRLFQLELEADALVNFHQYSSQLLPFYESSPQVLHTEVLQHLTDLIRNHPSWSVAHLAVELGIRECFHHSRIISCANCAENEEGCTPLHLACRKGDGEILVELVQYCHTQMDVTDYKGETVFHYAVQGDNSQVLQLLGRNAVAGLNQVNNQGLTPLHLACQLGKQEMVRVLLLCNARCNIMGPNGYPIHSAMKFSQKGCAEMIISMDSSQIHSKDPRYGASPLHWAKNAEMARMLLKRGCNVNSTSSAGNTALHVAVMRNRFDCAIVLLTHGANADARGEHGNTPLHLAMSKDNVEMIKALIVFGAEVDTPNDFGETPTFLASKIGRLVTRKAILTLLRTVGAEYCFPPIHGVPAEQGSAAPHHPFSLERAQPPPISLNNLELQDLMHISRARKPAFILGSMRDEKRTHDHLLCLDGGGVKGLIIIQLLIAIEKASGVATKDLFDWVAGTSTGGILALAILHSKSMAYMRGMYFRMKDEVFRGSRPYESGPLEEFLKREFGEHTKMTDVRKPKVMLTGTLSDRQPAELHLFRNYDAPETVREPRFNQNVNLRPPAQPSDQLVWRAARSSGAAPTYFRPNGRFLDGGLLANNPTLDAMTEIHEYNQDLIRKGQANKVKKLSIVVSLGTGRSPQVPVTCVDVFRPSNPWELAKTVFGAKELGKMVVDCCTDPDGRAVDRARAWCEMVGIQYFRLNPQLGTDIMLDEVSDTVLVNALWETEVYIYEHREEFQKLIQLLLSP
Procedure: Detergent-resistant PM (DRM-PM) and non-DRM-PM fractions were isolated and characterized as previously described (Pohl J et al. Mol Biol Cell. 2005; 16: 24-31). Subcellular membrane fractions were prepared by centrifugation at 100,000 g for 1 h to obtain homogenate pellets. Nuclear extracts were obtained by centrifugation at 500 g for 5 min. Pellets were washed and resuspended in a buffer solution containing […] (pH 7.4), 100 mM NaCl, and 0.1 mM EDTA (Marzluff WF et al. Meth Cell Biol. 1987; 317-331)). The protein concentration was determined by the Bradford method (Bio- Rad, Munich, Germany).
Immunoblotting was performed according to a standard protocol as set out in Sun Q., et al. Biol Med (Maywood). 2012; 237: 178-185. […] To estimate the protein concentration a semi-quantitative densitometry was performed as described in Sun Q et al. (loc cit.). […]

ursodeoxycholatelysophosphatidylethanolamide [UDCA-LPE]
cumulative proportion of the [3H]oleate extracted ([1]; 200 µM [3H]oleate:albumin (2:1)): 0.30 ± 0.03 | inhibition of fatty acid influx ([1]; vs controls): 34% | IC50 (HepG2 cells; 1-h treatment with increasing concentrations (Fig. 2A), read-out: inhibition of fatty acid influx (IC50)): 47 µM | time until fatty acid influx reached a minimum (HepG2 cells; UDCA-LPE 100 µM (Fig. 1A)): 60 min | time after withdrawal until original fatty acid influx rate was restored (HepG2 cells; after UDCA-LPE withdrawal (Fig. 1A)): 6 h | Km (HepG2 cells; pretreatment UDCA-LPE 100 µM, 1 h or MAFP 150 µM, 1 h): 0.251 µM | Vmax of [3H]oleate influx (HepG2 cells; pretreatment UDCA-LPE 100 µM, 1 h or MAFP 150 µM, 1 h, control 61.80): 28.43 nmol/mg protein/min | fatty acid influx (wild-type hepatocytes): inhibited | fatty acid influx (iPLA2ß-/- hepatocytes): not | incubation time at which the fatty acid uptake complex began to disassemble ([2]; 50 µM): ≥ 30 min | concentration at which the fatty acid uptake complex began to disassemble ([2]; 30 min of incubation): ≥ 50 µM
